How the values were obtained:
HCT116 cells = assay: Evaluation of Aurora inhibitory activity by analysis of nuclear morphology (enlarged lobed nuclei); type: cell-based, human; details: concentration in the range of 0.1 to 1 μmol/L, 17 hours contact; optimal concentration different in each compound
Protocol: 281 (2003)]. Consequently, enlarged lobed nuclei-inducibility of test compounds for HCT116 cells was evaluated. McCoy's 5A culture medium (GIBCO, Catalogue No. 16600-082) containing 10% bovine fetus serum (GIBCO, Catalogue No. 10099-141) was used for the cultivation of the cells. HCT116 cells were inoculated and, 24 hours later, each test compound was added thereto.

Aurora = Aurora inhibitory activity using Western blotting method (phosphorylation of histone H3 Ser10); type: cell-based, human; details: 10 μmol/L, 30 minutes, HCT116 cells accumulated in M phase with Nocodazole
Source text: It is known that Aurora phosphorylates Ser10 of histone H3 in the G2/M phase during the cell cycle [Molecular and Cellular Biology, Vol. 22, p. 874 (2002)]. Consequently, the inhibition of phosphorylation of histone H3 Ser10 in cells was detected by a Western blotting method using human colon cancer cell line HCT116 cells accumulated in the M phase. McCoy's 5A culture medium (GIBCO, Catalogue No. 16600-082) containing 10% bovine fetus serum (GIBCO, Catalogue No. 10099-141) was used for the cultivation of the cells. The HCT116 cells were inoculated and then treated with Nocodazole (Sigma Corporation, Catalogue No. M-1404) so that the cell cycle was accumulated to the M phase. A test compound (final concentration: 10 μmol/L) was added thereto, and the cells were incubated at 37° C. for 30 minutes. The cells were then recovered and washed with a phosphate buffered saline (PBS) once. The cells were suspended in a cell-solubilizing solution (50 mmol/L 2-[4-(2-hydroxyethyl)-1-piperazinyl]ethanesulfonic acid (HEPES) (pH 7.4), 150 mmol/L NaCl, 1 mmol/L ethylenediamine-N,N,N′,N′-tetraacetic acid disodium salt dihydrate (EDTA), 2.5 mmol/L ethylene glycol bis(2-aminoethylether)-N,N,N′,N′-tetraacetic acid (EGTA), 0.1% Tween-20 (Bio-Rad Laboratories Inc., Catalogue No. 170-6531), 10% β-glycerophosphate, 1 mmol/L NaF, 0.1 mmol/L Na3VO4, 1 mmol/L Pefabloc SC (Roche Diagnostics K.K., Catalogue No. 1 429 868), and Complete EDTA-free (Roche Diagnostics K.K., Catalogue No. 1 873 580)}, and the suspension was frozen and thawed. Subsequently, the supernatant obtained by centrifugal separation was used as a cell extraction solution. SDS-PAGE was performed using a 12.5% polyacrylamide gel under the condition that the amount of protein per sample was 30 μg in accordance with the method used by Laemmli et al. The protein was transferred onto a PVDF membrane (Millipore Corporation, Catalogue No. IPVH304F0) by a semi-dry method. The membrane was allowed to react with anti-phosphorylated histone H3 Ser10 antibody (Upstate Inc., Catalogue No. 06-570) used as a primary antibody, and an HRP-labeled anti-rabbit IgG antibody (Amersham biosciences, Catalogue No. NA934V) used as a secondary antibody. Subsequently, […] was detected using a SuperSignal West Pico chemiluminescence substrate (Pierce, Catalogue No. 34077).

Row | Structure (SMILES) | ability of inducing enlarged lobed nuclei for HCT116 cells (HCT116 cells) | suppression of the phosphorylation of histone H3 Ser10 in HCT116 cells (Aurora) | melting point [°C]
1 | COc1cc(-c2cc3cc(N4CCN(C)CC4)ccc3[nH]2)c2c(c1OS(C)(=O)=O)CNC2=O.Cl.Cl [Compound 457, 4-Methanesulfonyloxy-5-methoxy-7-[1H-5-(4-methylpyperazin-1-yl)indol-2-yl]isoindolinone dihydrochloride] | show ability of inducing enlarged lobed nuclei | almost completely suppressed | –
2 | O=C1NCc2c(Cl)ccc(-c3cc4cc(C(=O)N5CCN(CCOCCO)CC5)ccc4[nH]3)c21 [Compound 109, 4-Chloro-7-{1H-5-[4-(2-(2-hydroxyethoxy)ethyl)piperazin-1-ylcarbonyl]indol-2-yl}isoindolinone] | – | – | 255
3 | O=C1NCc2c(Cl)ccc(-c3cc4cc(C(=O)N5CCN(CCO)CC5)ccc4[nH]3)c21 [Compound 23, 4-Chloro-7-{1H-5-[4-(2-hydroxyethyl)piperazin-1-ylcarbonyl]indol-2-yl}isoindolinone] | – | – | > 295
4 | Cl.O=C1NCc2c(-c3ccco3)ccc(-c3cc4cc(CN5CCCCC5)ccc4[nH]3)c21 [Compound 143, 4-(Furan-2-yl)-7-[1H-5-(piperidinomethyl)indol-2-yl]isoindolinone hydrochloride] | show ability of inducing enlarged lobed nuclei | almost completely suppressed | –
5 | COc1cc(-c2cc3cc(CN(C)C)ccc3[nH]2)c2c(c1O)CNC2=O.Cl [Compound 357, 4-Hydroxy-5-methoxy-7-[1H-5-(dimethylaminomethyl)indol-2-yl]isoindolinone hydrochloride] | show ability of inducing enlarged lobed nuclei | almost completely suppressed | –
6 | CNCc1ccc2[nH]c(-c3cc(OC)c(OS(C)(=O)=O)c4c3C(=O)NC4)cc2c1.Cl [Compound 375, 4-Methanesulfonyloxy-5-methoxy-7-[1H-5-(methylaminomethyl)indol-2-yl]isoindolinone hydrochloride] | show ability of inducing enlarged lobed nuclei | almost completely suppressed | –
7 | COc1cc(-c2cc3cc(CNC4CCCCC4)ccc3[nH]2)c2c(c1OS(C)(=O)=O)CNC2=O [Compound 365, 4-Methanesulfonyloxy-5-methoxy-7-[1H-5-(cyclohexylaminomethyl)indol-2-yl]isoindolinone] | – | – | 196 to 199
8 | COCCCNCc1ccc2[nH]c(-c3cc(OC)c(OS(C)(=O)=O)c4c3C(=O)NC4)cc2c1.Cl [Compound 454, 4-Methanesulfonyloxy-5-methoxy-7-[1H-5-(3-methoxypropylaminomethyl)indol-2-yl]isoindolinone hydrochloride] | show ability of inducing enlarged lobed nuclei | almost completely suppressed | –
9 | CCN(CC)Cc1ccc2[nH]c(-c3cc(OC)c(OS(C)(=O)=O)c4c3C(=O)NC4)cc2c1.Cl [Compound 376, 4-Methanesulfonyloxy-5-methoxy-7-[1H-5-(diethylaminomethyl)indol-2-yl]isoindolinone hydrochloride] | show ability of inducing enlarged lobed nuclei | almost completely suppressed | –
10 | Cl.O=C1NCc2c(C#CCO)ccc(-c3cc4cc(CN5CCCCC5)ccc4[nH]3)c21 [Compound 321, 4-(3-Hydroxy-1-propinyl)-7-[1H-5-(piperidinomethyl)indol-2-yl]isoindolinone hydrochloride] | show ability of inducing enlarged lobed nuclei | almost completely suppressed | –
11 | Cl.O=C1NCc2c(Cl)ccc(-c3cc4cc(C(=O)N5CCNCC5)ccc4[nH]3)c21 [Compound 22] | show ability of inducing enlarged lobed nuclei | almost completely suppressed | –
12 | CN(C)Cc1ccc2[nH]c(-c3cc(OCCCO)c(Cl)c4c3C(=O)NC4)cc2c1.Cl [Compound 431, 4-Chloro-5-(3-hydroxypropoxy)-7-[1H-5-(dimethylaminomethyl)indol-2-yl]isoindolinone hydrochloride] | show ability of inducing enlarged lobed nuclei | almost completely suppressed | –
13 | Cl.O=C1NCc2c(Cl)ccc(-c3cc4cc(CN5CCCCC5)ccc4[nH]3)c21 [Compound 29, 4-Chloro-7-[1H-5-(piperidinomethyl)indol-2-yl]isoindolinone hydrochloride] | show ability of inducing enlarged lobed nuclei | almost completely suppressed | –
14 | Cl.Cl.O=C1NCc2c(Cl)ccc(-c3cc4cc(CN5CCN(CCO)CC5)ccc4[nH]3)c21 [Compound 24, 4-Chloro-7-{1H-5-[4-(2-hydroxyethyl)piperazin-1-ylmethyl]indol-2-yl}isoindolinone dihydrochloride] | show ability of inducing enlarged lobed nuclei | almost completely suppressed | –
15 | COc1cc(-c2cc3cc(CN4CCCC4)ccc3[nH]2)c2c(c1OS(=O)(=O)N(C)C)CNC2=O.Cl [Compound 417, 4-(Dimethylsulfamoyloxy)-5-methoxy-7-[1H-5-(pyrrolidin-1-ylmethyl)indol-2-yl]isoindolinone hydrochloride] | show ability of inducing enlarged lobed nuclei | almost completely suppressed | –
16 | COc1cc(-c2cc3cc(CN4CCCCC4)ccc3[nH]2)c2c(c1OS(=O)(=O)c1ccsc1)CNC2=O.Cl [Compound 407, 4-(3-Thiophenesulfonyloxy)-5-methoxy-7-[1H-5-(piperidinomethyl)indol-2-yl]isoindolinone hydrochloride] | show ability of inducing enlarged lobed nuclei | almost completely suppressed | –
17 | COc1cc(-c2cc3cc(CN(C)C)ccc3[nH]2)c2c(c1OS(=O)(=O)c1ccccn1)CNC2=O.Cl [Compound 412, 4-(2-Pyridinesulfonyloxy)-5-methoxy-7-[1H-5-(dimethylaminomethyl)indol-2-yl]isoindolinone hydrochloride] | show ability of inducing enlarged lobed nuclei | almost completely suppressed | –
18 | Cl.O=C1NCc2c(Cl)ccc(-c3cc4cc(CNCCO)ccc4[nH]3)c21 [Compound 32, 4-Chloro-7-{1H-5-[(2-hydroxyethyl)aminomethyl]indol-2-yl}isoindolinone hydrochloride] | show ability of inducing enlarged lobed nuclei | almost completely suppressed | –
19 | Cl.NS(=O)(=O)Oc1ccc(-c2cc3cc(CN4CCCCC4)ccc3[nH]2)c2c1CNC2=O [Compound 231, 4-Sulfamoyloxy-7-[1H-5-(piperidinomethyl)indol-2-yl]isoindolinone hydrochloride] | show ability of inducing enlarged lobed nuclei | almost completely suppressed | –
20 | Cl.O=C1NCc2c(O)ccc(-c3cc4cc(CN5CCCCC5)ccc4[nH]3)c21 [Compound 139, 4-Hydroxy-7-[1H-5-(piperidinomethyl)indol-2-yl]isoindolinone hydrochloride] | show ability of inducing enlarged lobed nuclei | almost completely suppressed | –

Source: patent US7745641B2, “Nitrogen-containing heterocyclic compound” (Kyowa Hakko Kirin Co., Ltd., priority 2005, dated 2010)
